Reference: paper PMC8777765, “Identification of Cyclic Sulfonamides with an N-Arylacetamide Group as α-Glucosidase and α-Amylase Inhibitors: Biological Evaluation and Molecular Modeling” (Pharmaceuticals, 2022)

Assays:
[1] = molecular target: T1, Aspergillus oryzae α-amylase (Aspergillus oryzae, UniProt P0C1B3); assay: in vitro α-amylase inhibition (starch substrate, DNSA); type: biochemical
T1 construct: purchased Sigma-Aldrich, Munich, Germany
Procedure: A total of 40 µL of each test sample was pipetted out in 96-well microliter plates. This was mixed with 40 µL of Aspergillus oryzae α-amylase (Sigma-Aldrich, Munich, Germany) solution (prepared in Na2SO4 buffer (0.02 M, pH = 6.9)). Incubation of solutions was executed at 37 °C for 10 min. After incubation, 40 µL of starch solution prepared in 1% DMSO was added into each well as a substrate and placed at 25 °C for 10 min. After this, 100 µL of 3,5-dinitrosalicylic acid (DNSA) was added and incubated for 5 min in boiling water. After cooling and dilution of mixtures with distilled water (400 μL), the absorbance was recorded at 540 nm wavelength [91] and 37 °C temperature with the help of a microplate reader. […] Each experiment was carried out thrice, and percentage inhibitions were determined with the help of following expression, followed by the determination of IC50 values. % Inhibition = [(Acontrol − Asample)/Acontrol] × 100 where A is absorbance.

[2] = test system: yeast α-glucosidase enzyme; assay: in vitro α-glucosidase inhibition (PNPG substrate); type: biochemical, Saccharomyces cerevisiae; conditions: for IC50: PNPG substrate
Procedure: α-Glucosidase inhibitions were determined following a modified spectroscopic method [87]. A solution of α-glucosidase (obtained from Saccharomyces cerevisiae (Sigma-Aldrich, Munich, Germany)) was prepared in phosphate buffer (pH 6.8, 100 mM). Wells of the 96-well microliter plates were filled with test sample solutions (12.5 μL) prepared in DMSO. After this, enzyme (0.5 U/mL, 40 μL) and then phosphate buffer (100 mM, 120 μL) were also mixed with the test sample solutions. Incubation at 37 °C for 5 min and then addition of 40 μL of the substrate, p-nitrophenyl-α-D-glucopyranoside (PNPG) (5 nM, Sigma-Aldrich, Munich, Germany), was performed. Mixtures were again incubated for 30 min, and absorbance was measured at 405 nm and 37 °C for the released 4-nitrophenol in each mixture. […] Each experiment was carried out thrice, and percentage inhibitions were determined with the help of following expression, followed by the determination of IC50 values. % Inhibition = [(Acontrol − Asample)/Acontrol] × 100 where A is absorbance.

α-amylase = molecular target: T2, α-amylase (Aspergillus oryzae, UniProt P0C1B3); assay: enzyme inhibition kinetics (Lineweaver–Burk), α-amylase; type: biochemical; conditions: secondary plots; starch 0.25–2%; read-out: Ki (inhibition constant), α-amylase
T2 construct: purchased Sigma-Aldrich, Munich, Germany
Excerpt: (§1) The pattern of the Lineweaver–Burk plot can visualize the type of inhibition, as shown in Figure 6A−F. […] Secondary plots were drawn to determine the value of the inhibition constant Ki and the dissociation constant Ki’. Smaller Ki implies higher enzyme inhibition, implying the possibility of an allosteric binding site in the enzyme, to which synthetic drugs could bind.
(§2) The Lineweaver–Burk equation was used to determine the type of inhibition. α-Glucosidase and α-amylase activities were studied in the absence and presence of various sample concentrations (0.1 mM, 0.25 mM, 0.5 mM, 0.75 mM and 1.0 mM). For α-glucosidase inhibition kinetics, PNPG was used as a substrate, with different concentrations (1 mM, 3 mM, 5 mM, 7 mM and 9 mM). In α-amylase inhibition kinetics, various amounts of starch solution (0.25–2%) were tested. All experiments were carried out in triplicate, and the outcomes were written as mean ± S.D.

α-glucosidase [3] = assay: enzyme inhibition kinetics (Lineweaver–Burk), α-glucosidase; type: biochemical, Saccharomyces cerevisiae; conditions: secondary plots; PNPG 1–9 mM; read-out: Ki (inhibition constant), α-glucosidase
Excerpt: as §1, §2

α-glucosidase [4] = molecular target: α-glucosidase; set-up: method as in PMID 32024621; conditions: read-out: α-glucosidase IC50 (literature); cited from earlier work
aldose reductase = molecular target: aldose reductase; set-up: method as in PMID 22036211; conditions: cited from earlier work
[5] = molecular target: human 11β-hydroxysteroid dehydrogenase type 1 (11β-HSD1); set-up: method as in PMID 21212546; conditions: cited from earlier work
[6] = test system: severe acute respiratory syndrome coronavirus 2 (SARS-CoV-2); set-up: method as in PMID 33160024; conditions: cited from earlier work

COc1cccc(C(=O)C2=C(O)c3ccccc3S(=O)(=O)N2CC(=O)Nc2cccc([N+](=O)[O-])c2)c1 [Compound 12e, 2-(4-Hydroxy-3-(3-methoxybenzoyl)-1,1-dioxido-2H-benzo[e][1,2]thiazin-2-yl)-N-(3-nitrophenyl)acetamide]
IC50 [1]: 37.5 µM | melting point: 189 to 190 °C | α-glucosidase inhibition (in words) [2]: failed to show any remarkable inhibition

COc1cccc(C(=O)C2=C(O)c3ccccc3S(=O)(=O)N2CC(=O)Nc2ccccc2Cl)c1 [Compound 12a, N-(2-Chlorophenyl)-2-(4-hydroxy-3-(3-methoxybenzoyl)-1,1-dioxido-2H-benzo[e][1,2]thiazin-2-yl)acetamide]
IC50 [1]: 13.3 µM | melting point: 186 to 187 °C | IC50 [2]: 46.2 µM

COc1cccc(C(=O)C2=C(O)c3ccccc3S(=O)(=O)N2CC(=O)Nc2ccc(Br)cc2)c1 [Compound 12i, N-(4-Bromophenyl)-2-(4-hydroxy-3-(3-methoxybenzoyl)-1,1-dioxido-2H-benzo[e][1,2]thiazin-2-yl)acetamide]
Ki (α-amylase): 70.4 µM | IC50 [1]: 7.52 µM | Ki (α-glucosidase [3]): 100 µM | IC50 [2]: 25.9 µM

C/C(=N\NC(=O)C1=C(O)c2ccccc2S(=O)(=O)N1C)c1ccccc1 [Compound 7]
IC50 (α-glucosidase [4]): 4.2 µM

COc1cccc(C(=O)C2=C(O)c3ccccc3S(=O)(=O)N2CC(=O)Nc2ccccc2[N+](=O)[O-])c1 [Compound 12d, 2-(4-Hydroxy-3-(3-methoxybenzoyl)-1,1-dioxido-2H-benzo[e][1,2]thiazin-2-yl)-N-(2-nitrophenyl)acetamide]
IC50 [1]: 15.1 µM | α-glucosidase inhibition (in words) [2]: failed to show any remarkable inhibition | IC50 [2]: 102 µM

COc1cccc(C(=O)C2=C(O)c3ccccc3S(=O)(=O)N2)c1 [Compound 11, (4-Hydroxy-1,1-dioxido-2H-benzo[e][1,2]thiazin-3-yl)(3-methoxyphenyl)methanone]
IC50 [1]: 147 µM | α-glucosidase inhibition (in words) [2]: failed to show any remarkable inhibition

COc1cccc(C(=O)C2=C(O)c3ccccc3S(=O)(=O)N2CC(=O)Nc2ccc([N+](=O)[O-])cc2)c1 [Compound 12f, 2-(4-Hydroxy-3-(3-methoxybenzoyl)-1,1-dioxido-2H-benzo[e][1,2]thiazin-2-yl)-N-(4-nitrophenyl)acetamide]
IC50 [1]: 29 µM | melting point: 176 to 177 °C | IC50 [2]: 97 µM

COc1cccc(C(=O)C2=C(O)c3ccccc3S(=O)(=O)N2CC(=O)Nc2ccccc2C)c1 [Compound 12j, 2-(4-Hydroxy-3-(3-methoxybenzoyl)-1,1-dioxido-2H-benzo[e][1,2]thiazin-2-yl)-N-(o-tolyl)acetamide]
melting point: 166 °C | α-glucosidase inhibition (in words) [2]: failed to show any remarkable inhibition

COc1cccc(C(=O)C2=C(O)c3ccccc3S(=O)(=O)N2CC(=O)Nc2cccc(C)c2)c1 [Compound 12k, 2-(4-Hydroxy-3-(3-methoxybenzoyl)-1,1-dioxido-2H-benzo[e][1,2]thiazin-2-yl)-N-(m-tolyl)acetamide]
IC50 [1]: 67.2 µM | melting point: 150 to 151 °C | IC50 [2]: 30.4 µM

COc1cccc(C(=O)C2=C(O)c3ccccc3S(=O)(=O)N2CC(=O)Nc2cccc(Br)c2)c1 [Compound 12h, N-(3-Bromophenyl)-2-(4-hydroxy-3-(3-methoxybenzoyl)-1,1-dioxido-2H-benzo[e][1,2]thiazin-2-yl)acetamide]
IC50 [1]: 110 µM | melting point: 132 to 133 °C | IC50 [2]: 86.2 µM

COc1cccc(C(=O)C2=C(O)c3ccccc3S(=O)(=O)N2CC(=O)Nc2ccc(Cl)cc2)c1 [Compound 12c, N-(4-Chlorophenyl)-2-(4-hydroxy-3-(3-methoxybenzoyl)-1,1-dioxido-2H-benzo[e][1,2]thiazin-2-yl)acetamide]
IC50 [1]: 125 µM | melting point: 146 to 147 °C | IC50 [2]: 40.8 µM

COc1cccc(C(=O)C2=C(O)c3ccccc3S(=O)(=O)N2CC(=O)Nc2cccc(Cl)c2)c1 [Compound 12b, N-(3-Chlorophenyl)-2-(4-hydroxy-3-(3-methoxybenzoyl)-1,1-dioxido-2H-benzo[e][1,2]thiazin-2-yl)acetamide]
α-glucosidase inhibition (in words) [2]: failed to show any remarkable inhibition

C/C(=N\NC(=O)C1=C(O)c2ccccc2S(=O)(=O)N1)c1ccccc1 [Compound 6]
IC50 (α-glucosidase [4]): 3.9 µM

COc1cccc(C(=O)C2=C(O)c3ccccc3S(=O)(=O)N2CC(=O)Nc2ccccc2Br)c1 [Compound 12g, N-(2-Bromophenyl)-2-(4-hydroxy-3-(3-methoxybenzoyl)-1,1-dioxido-2H-benzo[e][1,2]thiazin-2-yl)acetamide]
IC50 [1]: 11.7 µM | melting point: 169 to 171 °C | IC50 [2]: 35.1 µM

O=C(O)/C=C1\CN(Cc2ccc(Br)cc2F)S(=O)(=O)c2ccccc21 [Compound 5]
IC50 (aldose reductase): 110 nM

O=C(CN1C(C(=O)Nc2ccccc2)=C(O)c2ccccc2S1(=O)=O)Nc1cccc(C(F)(F)F)c1 [Compound 3]
IC50 [5]: 41 nM

COc1ccc(NC(=O)CN2C(C(=O)c3cccc(OC)c3)=C(O)c3ccccc3S2(=O)=O)cc1 [Compound 12m, 2-(4-Hydroxy-3-(3-methoxybenzoyl)-1,1-dioxido-2H-benzo[e][1,2]thiazin-2-yl)-N-(4-methoxyphenyl)acetamide]
IC50 [1]: 122 µM | melting point: 201 to 202 °C | α-glucosidase inhibition (in words) [2]: failed to show any remarkable inhibition

COc1cccc(C(=O)C2=C(O)c3ccccc3S(=O)(=O)N2CC(=O)Nc2ccccc2OC)c1 [Compound 12l, 2-(4-Hydroxy-3-(3-methoxybenzoyl)-1,1-dioxido-2H-benzo[e][1,2]thiazin-2-yl)-N-(2-methoxyphenyl)acetamide]
α-glucosidase inhibition (in words) [2]: failed to show any remarkable inhibition | IC50 [2]: 110 µM

O=C(CN1C(C(=O)Nc2ccc(F)c(Cl)c2)=C(O)c2ccc(F)cc2S1(=O)=O)Nc1ccc(C(F)(F)F)cc1 [Compound 4]
IC50 [6]: 880 nM
